Results from publication PMC3479967 (Evidence-based Complementary and Alternative Medicine : eCAM, 2012).

What was measured:
UGT1A3 = molecular target: T1, UGT1A3 (Homo sapiens, UniProt P35503); assay: Inhibition of recombinant UGT1A3 activity (4-MU glucuronidation)
T1 sequence (P35503 29-534): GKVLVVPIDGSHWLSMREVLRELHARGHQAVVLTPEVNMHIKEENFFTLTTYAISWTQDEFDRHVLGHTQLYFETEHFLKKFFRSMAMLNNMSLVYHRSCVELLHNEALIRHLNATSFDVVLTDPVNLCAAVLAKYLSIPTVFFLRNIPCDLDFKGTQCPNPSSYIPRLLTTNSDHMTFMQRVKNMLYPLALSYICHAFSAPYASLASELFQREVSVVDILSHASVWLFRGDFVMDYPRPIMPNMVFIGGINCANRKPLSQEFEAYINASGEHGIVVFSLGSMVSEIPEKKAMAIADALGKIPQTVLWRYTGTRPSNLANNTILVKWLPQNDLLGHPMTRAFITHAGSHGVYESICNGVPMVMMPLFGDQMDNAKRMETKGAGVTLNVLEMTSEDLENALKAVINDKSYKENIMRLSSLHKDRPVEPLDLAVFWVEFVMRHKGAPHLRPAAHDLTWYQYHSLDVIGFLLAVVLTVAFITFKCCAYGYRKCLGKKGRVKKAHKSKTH
Protocol: A panel of recombinant human UGT supersomes (UGT1A1, UGT1A3, UGT1A4, UGT1A6, UGT1A7, UGT1A8, UGT1A9, UGT1A10, UGT2B4, UGT2B7, UGT2B15, and UGT2B17) expressed in baculovirus-infected insect cells were purchased from BD Gentest Corp. (Woburn, MA, USA).
4-MU, a nonselective substrate of UGTs, was used as probe substrate for all UGTs except UGT1A4. Incubations with each individual enzyme were conducted using conditions previously described. There was a 5 min preincubation step at 37°C before the reaction was started by addition of UDPGA. The incubation mixtures were then centrifuged at 20,500 ×g for 15 min to obtain the supernatant. Aliquots (20 μL) were then analyzed by HPLC. The HPLC system (SHIMADZU, Kyoto, Japan) consisted of an SCL-10A system controller, two LC-10AT pumps, a SIL-10A auto injector, and a SPD-10AVP UV detector. […] The mobile phase consisted of 10 mM KH2PO4, pH 2.7 (A) and acetonitrile (B). The following gradient was applied at a flow rate of 1 mL/min: 0–4 min 80% A and 20% B, 4.1–8 min 50% A and 50% B, 8.1–12 min, 30% A and 70% B. All experiments were performed in two independent experiments in duplicate.
A typical incubation mixture contained recombinant human UGTs, 5 mM MgCl2, 5 mM UDPGA, 50 μg/mg protein alamethicin, 50 mM Tris-HCl buffer (pH 7.4), and various probe substrates of UGTs in the absence or presence of different concentrations of inhibitors. […] The final concentration of DMSO in the incubation system was 1% (v/v). […] Known UGT inhibitors were used as positive controls: diclofenac for UGT1A1, UGT1A6, UGT1A7, and UGT1A9; androsterone for UGT1A3, UGT2B7, and UGT2B15, phenylbutazone for UGT1A8 and UGT1A10, and hecogenin for UGT1A4, respectively. There is no positive control reported available for UGT2B4 and UGT2B17. The negative controls are the incubation without UDPGA. […] The final concentration of DMSO in the incubation system was 1% (v/v). […] There was a 5 min preincubation step at 37°C before the reaction was started by the addition of UDPGA. Incubation times were 120 min for UGT1A1, UGT1A10, UGT2B4, UGT2B15, and UGT2B17, 75 min for UGT1A3, and 30 min for UGT1A4, UGT1A6, UGT1A7, UGT1A8, and UGT1A9. The reactions were quenched by adding 100 μL acetonitrile and internal standard. The incubation mixtures were then centrifuged at 20,500 ×g for 15 min to obtain the supernatant. An aliquot of the supernatant was used for HPLC analysis as described above. All experiments were performed in two independent experiments in duplicate.
Inhibition data from experiments were graphically represented by Dixon plots. K i values were calculated by nonlinear regression using the equations for competitive inhibition (1), noncompetitive inhibition (2), or mixed inhibition (3), [22] […] The type of inhibition was determined from the enzyme inhibition models. […]

[1] = Calculation of possible maximum concentrations in blood; design: species or system human; details: calculated, after a single oral administration of Epimedium pubescens decoction

COc1ccc(-c2oc3c(CC=C(C)C)c(O[C@@H]4O[C@H](CO)[C@@H](O)[C@H](O)[C@H]4O)cc(O)c3c(=O)c2O[C@@H]2O[C@@H](C)[C@H](O)[C@@H](O)[C@H]2O)cc1 [Icariin]
IC50 (UGT1A3): 12.4 ± 0.1 µM | Ki (UGT1A3): 8 ± 1.4 µM | Possible maximum concentration in human blood [1]: about 1.3 nM

COc1ccc(-c2oc3c(CC=C(C)C)c(O)cc(O)c3c(=O)c2O)cc1 [Icaritin]
IC50 (UGT1A3): > 100 µM | Possible maximum concentration in human blood [1]: ~1.5 nM

COc1ccc(-c2oc3c(CC=C(C)C)c(O[C@@H]4O[C@H](CO)[C@@H](O)[C@H](O)[C@H]4O)cc(O)c3c(=O)c2O)cc1 [Icariside I]
IC50 (UGT1A3): > 100 µM | Possible maximum concentration in human blood [1]: ~0.1 nM
